Data published in patent publication US12402629B2, “Aspergillus terreus strain and composition for controlling bacterial plant diseases using strain or culture filtrate thereof” (Andong National University Industry-Academic Cooperation …, priority 2022, dated 2025).
“Also recorded” adds a separate entry of the source.

Tests used:
[1] = system: Dickeya chrysanthemi; test: Disc diffusion assay on NA medium; type: cell-based; details: paper filter disk wetted with 400 ppm of MPP, NA medium (FIG. 5)
Protocol: To this end, the NA medium (Nutrient agar medium: peptone 5 g, beef extract 1.5 g, yeast extract 1.5 g, NaCl 5 g & agar 15 g/1 L) was smeared with Dickeya chrysanthemi bacteria. After placing a paper filter disk in the center of the medium, 10 μL of culture extract and 400 ppm of MPP were wetted therein, respectively, and the result of culturing the bacteria was observed.

[2] = system: Dickeya chrysanthemi; test: Pathogen inoculation experiment on potato (potato soft rot control effect); type: in vivo; details: potato treated at the same time with D.c. suspension 2×10^6 cfu/ml and 400 ppm MPP (FIG. 6)
Protocol: In order to test whether the culture filtrate of the Aspergillus terreus ANU-301 strain of the present disclosure has a control effect on potato soft rot caused by Dickeya chrysanthemi bacteria, a pathogen inoculation experiment was performed (FIG. 3).
In potato plants inoculated with Dickeya chrysanthemi bacteria (D.c.), browning progressed at the inoculation site, and symptoms of soft rot disease were confirmed.
A pathogen inoculation experiment was conducted to test whether the MPP component present in the culture filtrate of the Aspergillus terreus ANU-301 strain of the present disclosure is effective in controlling potato soft rot disease caused by Dickeya chrysanthemi bacteria (FIG. 6). In potato plants inoculated with Dickeya chrysanthemi bacteria (D.c.), browning progressed at the inoculation site, and symptoms of soft rot disease were confirmed. […] Hereinafter, the present disclosure will be described in more detail with reference to Examples. However, these examples are presented merely to describe the present disclosure in more detail, and the scope of the present disclosure is not limited to these examples.
In order to evaluate the effect of the ANU-301 strain culture filtrate on potato soft rot inhibition, the culture filtrate was prepared as follows.
The ANU-301 strain was inoculated into sterilized potato dextrose broth (PDB) and cultured at 25° C. for 5 days. […]

CC(C)(c1ccccc1)c1ccc(O)c(C(C)(C)c2ccccc2)c1 [MPP, 2,4-bis(1-methyl-1-phenylethyl)-phenol]
bacterial growth / clear zone around the disk [1]: a clear zone was formed | soft rot symptoms (disease control effect) [2]: soft rot symptoms were suppressed; also recorded: showed a disease inhibitory effect
